Entries after “also recorded” stand apart in the source; their conditions may differ. Where no end group is shown, it is not given here.
How the values were obtained:
[1] = tested on: GHRH-R; assay: GHRH binding assay in crude anterior pituitary membrane pellets (125I-GHRHa); set-up: species or system ovine; settings: for displacement of GHRH in ovine pituitary: at 500 nM; for competition for the GHRHa binding site: at 100 nanomolar concentrations
Procedure: Specific binding is defined as the difference in the binding seen with 20 pM iodinated analog alone and binding of the analog in the presence of 10 nM non-iodinated GHRHa.
All steps were performed at 4°C. Frozen ovine or bovine anterior pituitaries (ovine: approximately 1 gm/pituitary obtained from Dr. Ian Clarke, Melbourne, Australia; bovine: approximately 2.5 gm/pituitary special handling from Pel-Freez, of Rogers, Arkansas) were washed of blood, cleaned of connective tissue and homogenized (using a Dounce homogenizer) in 50mM HEPES buffer, 100 mM NaCl, 10mM EDTA, 0.1 µM EGTA, pH 7.4 with 0.5 mM PMSF (phenyl methyl sulfonyl fluoride), 10 µg/ml leupeptin, 10 µg/ml pepstatin A, and 200 U/ml (units/ml) aprotinin. This buffer is used to remove endogenous GTP which might be bound to G proteins and to restore high affinity binding. The homogenate was spun at top speed in a microfuge and the supernatant discarded. The upper (membrane) layer of the pellet was then gently resuspended in binding buffer containing 50 mM Tris buffer, 5 mM EGTA, 5 mM MgCl2, 50µg/ml alamethicin, 30 µg/ml bacitracin and other protease inhibitors as above.
1/50 pituitary equivalent per tube was incubated in binding buffer with approximately 100,000 counts of iodinated probe in a volume of 500 µl at room temperature for 1 hour. The total counts delivered and the percent of counts bound for each tube was determined with 3 to 6 replicates per experimental condition. Saturation binding profiles were analyzed with the computer program Ligand which performs a statistically weighted least squares fit to the exact ligand binding equation in nontransformed coordinates.

[2] = tested on: GHRH-R; assay: Photoaffinity cross-linking of receptor in pituitary membranes, SDS-PAGE autoradiography; format: binding, ovine
Procedure: Photoprobe binding in ovine pituitary membrane pellets was determined by γ-counting and UV induced cross-linking was examined by autoradiagraphy of sodium dodecylsulfate polyacrylamide electrophoresis (SDS-PAGE) gels. ^125I-GHRHa-ANB-NOS probe bound with an affinity of about one nanomole, nM (compared to about 160 picomole, pM, for GHRHa).
Photoprobe binding to membranes was evaluated with crude membrane binding assay and then analyzed further by SDS-PAGE electrophoresis to identify the binding sites. Photoprobes were incubated in the dark, photolysed for 10 minutes with a long wave (366 nm) UV lamp, and then the samples were pelleted. The pellets were counted and then extracted by boiling directly in SDS sample buffer (total SDS extracts). Alternatively, the labeled pellets were extracted in a mild detergent solution (5 mM CHAPS) centrifuged, and the chloroform/methanol concentrated supernatants denatured with SDS buffer (CHAPS extracts). These samples were then electrophoresed in SDS gels and autoradiographed.

[3] = biological target: T1, secretin and VIP receptors (Homo sapiens, UniProt P47872); settings: human pancreas, cited from earlier work; for inhibition: at 10 µM, 125I-secretin
T1 construct: host or cells: human pancreas

[4] = biological target: T2, GHRH-R (Homo sapiens, UniProt Q02643); assay: Iodinated GHRHa binding to COS cells / COS cell membranes transfected with pCDM8 containing HAP 7 cDNA; settings: for binding of iodinated GHRH in presence of peptide: 100 nM of peptide
T2 construct: expressed in transfected cells
T2 sequence (Q02643 23-423): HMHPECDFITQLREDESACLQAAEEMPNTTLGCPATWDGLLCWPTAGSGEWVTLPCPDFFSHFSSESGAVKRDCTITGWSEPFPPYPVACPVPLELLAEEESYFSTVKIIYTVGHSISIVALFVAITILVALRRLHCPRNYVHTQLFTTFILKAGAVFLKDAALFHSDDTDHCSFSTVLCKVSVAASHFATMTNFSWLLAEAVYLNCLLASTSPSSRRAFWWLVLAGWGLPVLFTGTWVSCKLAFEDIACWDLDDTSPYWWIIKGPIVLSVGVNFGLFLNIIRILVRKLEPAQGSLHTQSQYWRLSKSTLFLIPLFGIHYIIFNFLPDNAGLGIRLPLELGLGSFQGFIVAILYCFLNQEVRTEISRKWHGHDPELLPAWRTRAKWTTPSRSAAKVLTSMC
Procedure: The bars indicate the total counts bound to the cells after incubation with ^125I-GHRHa or in the presence of gradually increasing amounts of non-iodinated GRF.
Binding in the presence of increasing concentrations of competing peptides is shown. […] Each point represents an N of 6 ± standard error. Non-specific binding was 20-30% of total counts in COS cell membranes, and 40-60% in crude pituitary membranes.
Cos-1 cells were transfected with the vector formed by splicing pCDM8 and HAP cDNA, and Cos-1 cell membranes were prepared 72 hours subsequently. Cos-1 cells were transfected using 10 µg of plasmid DNA per 6x10^5 cells in a 100-mm dish using the DEAE-dextran method described by Cullen. […] COS cell cultures were transfected in parallel with pCDM8 containing a cDNA encoding the rat AT1 angiotensin II receptor.

T1 sequence (P47872 23-440): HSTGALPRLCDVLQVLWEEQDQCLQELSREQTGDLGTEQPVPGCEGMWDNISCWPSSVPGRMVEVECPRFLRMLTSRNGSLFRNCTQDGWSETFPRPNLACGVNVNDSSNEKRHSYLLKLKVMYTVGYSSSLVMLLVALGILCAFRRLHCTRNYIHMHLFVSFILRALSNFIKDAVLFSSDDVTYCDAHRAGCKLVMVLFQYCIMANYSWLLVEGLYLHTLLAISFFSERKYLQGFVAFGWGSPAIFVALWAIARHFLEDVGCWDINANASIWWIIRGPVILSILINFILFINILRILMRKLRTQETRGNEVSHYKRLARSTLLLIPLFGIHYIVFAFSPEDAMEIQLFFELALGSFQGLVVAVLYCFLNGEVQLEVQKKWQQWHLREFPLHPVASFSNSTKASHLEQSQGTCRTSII

## O[C@H](CS)[C@H](O)CS (racemic) [DTT, dithiothreitol]
[1]; 1 mM dithiothreitol
  specific binding in the GHRH assay after preincubation: completely eliminated

## Nc1nc2c(ncn2[C@@H]2O[C@H](COP(=O)(O)OP(=O)(O)OP(O)(O)=S)[C@@H](O)[C@H]2O)c(=O)[nH]1 [GTPγS]
[1]; 50 µM GTPγS
  displacement of both photoprobes from membrane pellets: partially displaced
  reduction of specific binding of GHRHa radioligand: up to 65%
[2]; 50 µM GTPγS
  reduction of 55 kDa cross-linked band: over 50%

## CC[C@H](C)[C@H](NC(=O)CNC(=O)[C@H](CC(=O)O)NC(=O)[C@H](CO)NC(=O)[C@@H](N)Cc1c[nH]cn1)C(=O)N[C@@H](Cc1ccccc1)C(=O)N[C@H](C(=O)N[C@@H](CC(=O)O)C(=O)N[C@@H](CO)C(=O)N[C@@H](Cc1ccc(O)cc1)C(=O)N[C@@H](CO)C(=O)N[C@@H](CCCNC(=N)N)C(=O)N[C@@H](Cc1ccc(O)cc1)C(=O)N[C@@H](CCCNC(=N)N)C(=O)N[C@@H](CCCCN)C(=O)N[C@@H](CCC(N)=O)C(=O)N[C@@H](CCSC)C(=O)N[C@@H](C)C(=O)N[C@H](C(=O)N[C@@H](CCCCN)C(=O)N[C@@H](CCCCN)C(=O)N[C@@H](Cc1ccc(O)cc1)C(=O)N[C@@H](CC(C)C)C(=O)N[C@@H](C)C(=O)N[C@@H](C)C(=O)N[C@H](C(=O)N[C@@H](CC(C)C)C(=O)NCC(=O)N[C@@H](CCCCN)C(=O)N[C@@H](CCCNC(=N)N)C(=O)N[C@@H](Cc1ccc(O)cc1)C(=O)N[C@@H](CCCCN)C(=O)N[C@@H](CCC(N)=O)C(=O)N[C@@H](CCCNC(=N)N)C(=O)N[C@H](C(=O)N[C@@H](CCCCN)C(=O)N[C@@H](CC(N)=O)C(=O)N[C@@H](CCCCN)C(N)=O)C(C)C)C(C)C)C(C)C)[C@@H](C)O [PACAP]
[1]
  displacement of GHRH in ovine pituitary: significant displacement
  competition for the GHRHa binding site: no competition; also recorded: did not compete

## GHRH(1-29)-NH2
[3]
  inhibition: 20%

## PHM: competing peptide of the VIP family tested at 100 nM (HADGVFTSDFSKLLGQLSAKKYLESLM; ends and bridges not checked; UniProt P01282 81-107, looked up)
[4]
  binding of iodinated GHRH in presence of peptide: uneffected

## VIP: vasoactive intestinal peptide
[3]
  inhibition: 20%
[4]; 100 nM VIP, transfected COS cells, Figure 15
  effect on bound counts of GHRHa: no effect
[4]
  binding of iodinated GHRH in presence of peptide: uneffected
[1]
  displacement of GHRH in ovine pituitary: not
  competition for the GHRHa binding site: no competition; also recorded: did not compete
[2]; 100 nM VIP
  effect on 55 kDa cross-linked band: unaffected

## calcitonin
[4]
  binding of iodinated GHRH in presence of peptide: uneffected

## galanin
[4]
  binding of iodinated GHRH in presence of peptide: uneffected

## helodermin
[3]; using 125I-secretin, read-out: Kds
  Kd: 0.2 µM

## parathyroid hormone
[4]
  binding of iodinated GHRH in presence of peptide: uneffected

## secretin
[4]
  binding of iodinated GHRH in presence of peptide: uneffected

## somatostatin
[4]
  binding of iodinated GHRH in presence of peptide: uneffected

Source: patent EP0591697B1, “Cloning and characterization of the growth hormone releasing hormone receptor” (Thorner, Michael Oliver, priority 1992, dated 1994)
